Laboratory results taken from patent US20240190890A1, “MK2 INHIBITORS AND USES THEREOF” (Bristol-Myers Squibb Company, priority 2022, published 2024).

Molecular target: p38a activated, mitogen-activated protein kinase-activated protein kinase 2 (MAPKAP-K2 or MK2) enzyme (Homo sapiens (Human), UniProt P49137)
Assay: MK2 Omnia continuous-read kinase assay for compound potency
Format: biochemical
Conditions: [MK-2]=0.4 nM, [ATP]=10 μM, [ST3-Sox]=10 μM; room temperature
Procedure, shortened: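 Continuous Sox-peptide fluorescence read (ex360/em485) every 71 s over 2 h at room temperature. Reactions: 10 μM each of ATP (at apparent Km) and S/T3-Sox, 0.4 nM p38a-activated MK2, pH 7.5 Tris/MgCl2 buffer. Initial rates yield % inhibition and IC50; single-exponential kobs values yield apparent kinact/KI.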

p38a activated, mitogen-activated protein kinase-activated protein kinase 2 (MAPKAP-K2 or MK2) enzyme, sequence (P49137 whole entry): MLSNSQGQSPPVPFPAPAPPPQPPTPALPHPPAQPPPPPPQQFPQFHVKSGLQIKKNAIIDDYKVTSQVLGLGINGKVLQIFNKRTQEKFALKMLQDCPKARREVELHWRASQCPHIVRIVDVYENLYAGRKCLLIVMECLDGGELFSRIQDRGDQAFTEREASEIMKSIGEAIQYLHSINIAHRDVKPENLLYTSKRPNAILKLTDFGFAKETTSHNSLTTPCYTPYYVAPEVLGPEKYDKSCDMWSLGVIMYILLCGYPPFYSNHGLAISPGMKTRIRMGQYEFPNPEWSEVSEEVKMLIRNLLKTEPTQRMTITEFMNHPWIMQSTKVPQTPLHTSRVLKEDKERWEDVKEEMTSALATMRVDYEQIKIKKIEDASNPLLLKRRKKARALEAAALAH

| Structure (SMILES) | IC50 [nM] |
| --- | --- |
| C[C@@H]1CNc2c(sc3ccc4nc(-n5c(Br)nc(Cl)c5Cl)ccc4c23)C(=O)N1 [Example I-250, (R)-3-(2-bromo-4,5-dichloro-1H-imidazol-1-yl)-10-methyl-9,10,11,12-tetrahydro-8H-[1,4]diazepino[5′,6′:4,5]thieno[3,2-f]quinolin-8-one] | 580 |
| Cc1cnc(CC#N)cc1-c1ccc2c(ccc3sc4c(c32)NC[C@@H](C)NC4=O)n1 [Example I-267, (R)-2-(5-methyl-4-(10-methyl-8-oxo-9,10,11,12-tetrahydro-8H-[1,4]diazepino[5′,6′:4,5]thieno[3,2-f]quinolin-3-yl)pyridin-2-yl)acetonitrile] | 1000 |
| C#Cc1cc(-c2ccc3c(ccc4sc5c(c43)NC[C@@H](C)NC5=O)n2)cc(CN2CCC(OC(F)(F)F)CC2)n1 [Example I-190, (R)-3-(2-ethynyl-6-((4-(trifluoromethoxy)piperidin-1-yl)methyl)pyridin-4-yl)-10-methyl-9,10,11,12-tetrahydro-8H-[1,4]diazepino[5′,6′:4,5]thieno[3,2-f]quinolin-8-one] | 402 |
| C=Cc1nc(C)nn1-c1ccc2c(ccc3sc4c(c32)NC[C@@H](C)NC4=O)n1 [Example I-224, (R)-10-methyl-3-(3-methyl-5-vinyl-1H-1,2,4-triazol-1-yl)-9,10,11,12-tetrahydro-8H-[1,4]diazepino[5′,6′:4,5]thieno[3,2-f]quinolin-8-one] | 2 |
| C=Cc1ncc(C)c(-c2ccc3c(ccc4sc5c(c43)NC[C@@H](C)NC5=O)n2)n1 [Example I-33, (R)-10-methyl-3-(5-methyl-2-vinylpyrimidin-4-yl)-9,10,11,12-tetrahydro-8H-[1,4]diazepino[5′,6′:4,5]thieno[3,2-f]quinolin-8-one] | 120 |
| C#Cc1cc(-c2ccc3c(ccc4sc5c(c43)NC[C@@H](C)NC5=O)n2)cc(N2CC(F)(F)C2)n1 [Example I-183, (R)-3-(2-(3,3-difluoroazetidin-1-yl)-6-ethynylpyridin-4-yl)-10-methyl-9,10,11,12-tetrahydro-8H-[1,4]diazepino[5′,6′:4,5]thieno[3,2-f]quinolin-8-one] | 839 |
| C#Cc1ncc(OC)c(-c2ccc3c(ccc4sc5c(c43)NC[C@@H](C)NC5=O)n2)n1 [Example I-42, (R)-3-(2-ethynyl-5-methoxypyrimidin-4-yl)-10-methyl-9,10,11,12-tetrahydro-8H-[1,4]diazepino[5′,6′:4,5]thieno[3,2-f]quinolin-8-one] | 233 |
| C=Cc1nnc(C)n1-c1ccc2c(ccc3sc4c(c32)NC[C@@H](C)NC4=O)n1 [Example I-223, (R)-10-methyl-3-(3-methyl-5-vinyl-4H-1,2,4-triazol-4-yl)-9,10,11,12-tetrahydro-8H-[1,4]diazepino[5′,6′:4,5]thieno[3,2-f]quinolin-8-one] | 1000 |
| C#Cc1cc(-c2ccc3c(ccc4sc5c(c43)NC[C@@H](C)NC5=O)n2)c(NC)nn1 [Example I-104, (R)-3-(6-ethynyl-3-(methylamino)pyridazin-4-yl)-10-methyl-9,10,11,12-tetrahydro-8H-[1,4]diazepino[5′,6′:4,5]thieno[3,2-f]quinolin-8-one] | 194 |
| C#Cc1cc(-c2ccc3c(ccc4sc5c(c43)NC[C@@H](C)NC5=O)n2)c(N(C)C)nn1 [Example I-105, (R)-3-(3-(dimethylamino)-6-ethynylpyridazin-4-yl)-10-methyl-9,10,11,12-tetrahydro-8H-[1,4]diazepino[5′,6′:4,5]thieno[3,2-f]quinolin-8-one] | 118 |
| C=Cc1cc(-c2ccc3c(ccc4sc5c(c43)NC[C@@H](C)NC5=O)n2)c(OCCN2CCCC2)nn1 [Example I-118, (R)-10-methyl-3-(3-(2-(pyrrolidin-1-yl)ethoxy)-6-vinylpyridazin-4-yl)-9,10,11,12-tetrahydro-8H-[1,4]diazepino[5′,6′:4,5]thieno[3,2-f]quinolin-8-one] | 28 |
